Experimental data taken from patent US12522594B2, “2-heteroaryl-3-oxo-2,3-dihydropyridazine-4-carboxamides for the treatment of cancer” (Deutsches Krebsforschungszentrum, priority 2017, dated 2026).

Key:
Format in all cases: cell-based
[1] = molecular target: T1, AHR (Homo sapiens, UniProt P35869); test: In vitro assay 1: antagonism in human cell line (transactivation assay, U87 cells prestimulated with kynurenic acid, DRE firefly luciferase reporter); design: host or cells: U87 glioblastoma cells, stably transfected with DRE firefly luciferase and renilla reporter constructs; conditions: 150 uM kynurenic acid, 20 hours, read-out: Assay 1: AHR-luc Hum Antagonism IC50
T1 sequence (P35869 11-848): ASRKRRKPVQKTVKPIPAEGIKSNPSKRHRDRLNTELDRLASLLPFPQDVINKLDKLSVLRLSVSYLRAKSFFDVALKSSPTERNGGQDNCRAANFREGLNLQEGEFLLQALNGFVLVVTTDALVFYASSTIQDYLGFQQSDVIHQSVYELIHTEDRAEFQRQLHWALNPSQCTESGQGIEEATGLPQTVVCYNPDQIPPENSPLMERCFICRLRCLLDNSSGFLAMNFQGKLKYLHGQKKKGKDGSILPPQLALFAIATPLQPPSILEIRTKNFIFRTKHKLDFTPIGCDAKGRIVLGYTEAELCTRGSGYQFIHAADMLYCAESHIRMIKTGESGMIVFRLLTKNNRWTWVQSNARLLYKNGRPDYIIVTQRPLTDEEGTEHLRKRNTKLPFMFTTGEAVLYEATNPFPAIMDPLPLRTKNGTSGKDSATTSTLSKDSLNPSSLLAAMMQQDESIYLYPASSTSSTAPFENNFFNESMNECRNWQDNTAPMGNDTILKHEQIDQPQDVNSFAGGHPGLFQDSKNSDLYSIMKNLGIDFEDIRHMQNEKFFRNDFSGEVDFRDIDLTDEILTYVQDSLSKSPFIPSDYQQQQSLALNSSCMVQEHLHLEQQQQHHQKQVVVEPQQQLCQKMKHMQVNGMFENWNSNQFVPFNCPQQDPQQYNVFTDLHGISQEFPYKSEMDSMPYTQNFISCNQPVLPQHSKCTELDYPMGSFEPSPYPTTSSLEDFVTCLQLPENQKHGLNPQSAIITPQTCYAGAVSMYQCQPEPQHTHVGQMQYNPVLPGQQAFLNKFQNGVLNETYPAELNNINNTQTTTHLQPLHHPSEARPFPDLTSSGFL
Outline: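 Antagonism measured after kynurenic acid prestimulation in U87 cells that express AHR endogenously and stably harbor a firefly luciferase gene under DRE control plus a constitutive renilla construct. Positive and negative controls served for normalization.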

[2] = molecular target: T1, AHR; test: In vitro assay 2: agonism in human cell line (transactivation assay, U87 cells, DRE firefly luciferase reporter); design: host or cells: U87 glioblastoma cells, stably transfected with DRE firefly luciferase and renilla reporter constructs; conditions: no kynurenic acid, 20 hours, read-out: Assay 2: AHR-luc Hum Agonism IC50
Outline: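 Agonist readout: DRE firefly luciferase, with constitutive renilla reporter, in stably transfected U87 cells expressing AHR endogenously. Normalization used positive control (300 uM kynurenic acid) and negative control.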

[3] = molecular target: T1, AHR; test: In vitro assay 3: AHR-regulated CYP1A1 expression in human cell line (U937, qPCR, KA stimulation); conditions: U937 cells, 200 uM KA, 6 hours, CYP1A1 expression by qPCR; read-out: Assay 3: Hum CYP1A1 Antagonism IC50
Experimental: In Vitro Assay 3: AHR-Regulated CYP1A1 Expression in Human Cell Line
To assess the AHR inhibitory activity of the substances described in this application, the ability thereof to antagonise ligand-induced AHR gene regulation in a dose-dependent manner was quantified. For this purpose, quantitative PCR analysis was used to determine expression of the AHR-regulated gene CYP1A1 in a human monocytic U937 cell line upon stimulation with 200 uM KA in the presence and absence of AHR inhibitor. […] CYP1A1 expression was induced with 200 uM KA (positive control) in the presence or absence of the substances for 6 hours. Human U937 cells were typically incubated with eight different concentrations of the substances (1 nM, 3 nM, 10 nM, 30 nM, 100 nM, 300 nM, 1 uM and 3 uM) and analyzed in duplicate on the same microtitre plate. […] Unstimulated cells were used as the negative control. Taqman probes for human CYP1A1 (Hs01054797_g1) and human HPRT (Hs02800695_m1) were used to analyze fold expression of CYP1A1 of HPRT. Quantitation was performed on a Taqman SDS7900HT.

Row | SMILES | IC50 [1] [µM] | IC50 [2] [µM] | IC50 [3] [µM]
1 | C[C@@H](CO)NC(=O)c1cc(-c2ccc(Cl)cc2)nn(-c2ccn(C)n2)c1=O [Example 192, 6-(4-Chlorophenyl)-N-[(2S)-1-hydroxypropan-2-yl]-2-(1-methyl-1H-pyrazol-3-yl)-3-oxo-2,3-dihydropyridazine-4-carboxamide] | 0.341 | > 20 | 0.0043
2 | Cn1cc(-n2nc(-c3ccc(Cl)cc3)cc(C(=O)NCC(O)C(F)(F)F)c2=O)cn1 (single isomer, unassigned; (-)) [Example 19, (−)-6-(4-Chlorophenyl)-2-(1-methyl-1H-pyrazol-4-yl)-3-oxo-N-(3,3,3-trifluoro-2-hydroxypropyl)-2,3-dihydropyridazine-4-carboxamide] | 0.00392 | > 20 | 0.00643
3 | Cn1cc(-n2nc(-c3ccc(C(F)(F)F)cc3)cc(C(=O)NC[C@H](O)C(F)(F)F)c2=O)cn1 [Example 37, 2-(1-Methyl-1H-pyrazol-4-yl)-3-oxo-N-[(2S)-3,3,3-trifluoro-2-hydroxypropyl]-6-[4-(trifluoromethyl)phenyl]-2,3-dihydropyridazine-4-carboxamide] | 0.00264 | > 20 | 0.000423
4 | O=C(N[C@H]1COC[C@H]1O)c1cc(-c2ccc(Cl)cc2)nn(-c2cccnc2)c1=O (single isomer, unassigned) [Example 172, 6-(4-chlorophenyl)-N-[(cis)-4-hydroxytetrahydrofuran-3-yl]-3-oxo-2-(pyridin-3-yl)-2,3-dihydropyridazine-4-carboxamide] | 0.0295 | > 20 | 0.0234
5 | O=C(NC(CO)C(F)(F)F)c1cc(-c2ccc(Cl)cc2)nn(-c2cccnc2)c1=O (racemic) [Example 76, 6-(4-Chlorophenyl)-3-oxo-2-(pyridin-3-yl)-N-[(2RS)-1,1,1-trifluoro-3-hydroxypropan-2-yl]-2,3-dihydropyridazine-4-carboxamide] | 0.0119 | > 20 | 0.0138
6 | Cn1cc(-n2nc(-c3ccc(C(F)(F)F)cc3)cc(C(=O)N[C@H]3CCC[C@H]3O)c2=O)cn1 [Example 204, N-[(1S,2R)-2-Hydroxycyclopentyl]-2-(1-methyl-1H-pyrazol-4-yl)-3-oxo-6-[4-(trifluoromethyl)phenyl]-2,3-dihydropyridazine-4-carboxamide] | 0.001 | > 20 | 0.00155
7 | O=C(N[C@H]1CCCC[C@H]1O)c1cc(-c2ccc(Cl)cc2)nn(-c2cncc(F)c2)c1=O [Example 124, 6-(4-Chlorophenyl)-2-(5-fluoropyridin-3-yl)-N-[(1S,2R)-2-hydroxycyclohexyl]-3-oxo-2,3-dihydropyridazine-4-carboxamide] | 0.00364 | > 20 | –
8 | C[C@@H](CO)NC(=O)c1cc(-c2ccc(C(F)F)cc2)nn(-c2cccnc2)c1=O [Example 151, 6-[4-(Difluoromethyl)phenyl]-N-[(2S)-1-hydroxypropan-2-yl]-3-oxo-2-(pyridin-3-yl)-2,3-dihydropyridazine-4-carboxamide] | 0.0211 | > 20 | –
9 | Cn1cc(-n2nc(-c3ccc(OC(F)(F)F)cc3)cc(C(=O)N[C@@H]3COC[C@@H]3O)c2=O)cn1 (single isomer, unassigned; enantiomer 2) [Example 57, N-[(cis)-4-Hydroxytetrahydrofuran-3-yl]-2-(1-methyl-1H-pyrazol-4-yl)-3-oxo-6-[4-(trifluoromethoxy)phenyl]-2,3-dihydropyridazine-4-carboxamide, Enantiomer 2] | 0.00748 | > 20 | –
10 | CC(C)(O)CNC(=O)c1cc(-c2ccc(OC(F)F)cc2)nn(-c2cccnc2)c1=O [Example 331, 6-[4-(Difluoromethoxy)phenyl]-N-(2-hydroxy-2-methylpropyl)-3-oxo-2-(pyridin-3-yl)-2,3-dihydropyridazine-4-carboxamide] | 0.234 | > 20 | –
11 | CC(C)[C@@H](CO)NC(=O)c1cc(-c2ccc(Cl)cc2)nn(-c2cncc(F)c2)c1=O [Example 83, 6-(4-Chlorophenyl)-2-(5-fluoropyridin-3-yl)-N-[(2S)-1-hydroxy-3-methylbutan-2-yl]-3-oxo-2,3-dihydropyridazine-4-carboxamide] | 0.00461 | > 20 | –
12 | C[C@H](NC(=O)c1cc(-c2ccc(CF)cc2)nn(-c2cccnc2)c1=O)C(C)(C)O [Example 288, 6-[4-(Fluoromethyl)phenyl]-N-[(2S)-3-hydroxy-3-methylbutan-2-yl]-3-oxo-2-(pyridin-3-yl)-2,3-dihydropyridazine-4-carboxamide] | 0.82 | > 20 | –
13 | C[C@@H](CO)NC(=O)c1cc(-c2ccc(C(F)(F)F)cn2)nn(-c2cccnc2)c1=O [Example 345, N-[(2S)-1-Hydroxypropan-2-yl]-3-oxo-2-(pyridin-3-yl)-6-[5-(trifluoromethyl)pyridin-2-yl]-2,3-dihydropyridazine-4-carboxamide] | 0.0553 | > 20 | –
14 | Cn1cc(-n2nc(-c3ccc(Cl)cc3)cc(C(=O)N[C@@H]3CCC[C@]3(C)O)c2=O)cn1 (single isomer, unassigned) [Example 335, 6-(4-Chlorophenyl)-N-[(cis)-2-hydroxy-2-methylcyclopentyl]-2-(1-methyl-1H-pyrazol-4-yl)-3-oxo-2,3-dihydropyridazine-4-carboxamide] | 0.0113 | > 20 | –
15 | O=C(N[C@H]1CCCC(F)(F)[C@@H]1O)c1cc(-c2ccc(OC(F)(F)F)cc2)nn(-c2cccnc2)c1=O (single isomer, unassigned; enantiomer 2) [Example 142, N-[(trans)-3,3-Difluoro-2-hydroxycyclohexyl]-3-oxo-2-(pyridin-3-yl)-6-[4-(trifluoromethoxy)phenyl]-2,3-dihydropyridazine-4-carboxamide, Enantiomer 2] | 0.00832 | > 20 | –
16 | O=C(N[C@H]1CCC[C@@H]1O)c1cc(-c2ccc(OC(F)(F)F)cc2)nn(-c2cccnc2)c1=O [Example 132, N-[(1S,2S)-2-Hydroxycyclopentyl]-3-oxo-2-(pyridin-3-yl)-6-[4-(trifluoromethoxy)phenyl]-2,3-dihydropyridazine-4-carboxamide] | 0.00688 | > 20 | –
17 | Cn1cc(-n2nc(-c3ccc(C(F)F)nc3)cc(C(=O)N[C@H]3CCCC[C@H]3O)c2=O)cn1 [Example 54, 6-[6-(Difluoromethyl)pyridin-3-yl]-N-[(1S,2R)-2-hydroxycyclohexyl]-2-(1-methyl-1H-pyrazol-4-yl)-3-oxo-2,3-dihydropyridazine-4-carboxamide] | 0.0143 | > 20 | –
18 | COC(=O)[C@@H](CO)NC(=O)c1cc(-c2ccc(Cl)cc2)nn(-c2cnn(C)c2)c1=O [Example 267, Methyl N-{[6-(4-chlorophenyl)-2-(1-methyl-1H-pyrazol-4-yl)-3-oxo-2,3-dihydropyridazine-4-yl]carbonyl}-D-serinate] | 0.0569 | > 20 | –
19 | O=C(NC[C@H](O)CF)c1cc(-c2ccc(OC(F)(F)F)cc2)nn(-c2cccnc2)c1=O [Example 296, N-[(2S)-3-Fluoro-2-hydroxypropyl]-3-oxo-2-(pyridin-3-yl)-6-[4-(trifluoromethoxy)phenyl]-2,3-dihydropyridazine-4-carboxamide] | 0.118 | > 20 | –
